Assay results: publication PMC8887546, “Design and Synthesis of Brain Penetrant Glycopeptide Analogues of PACAP With Neuroprotective Potential for Traumatic Brain Injury and Parkinsonism” (Frontiers in drug discovery, 2022)

Key:
[1] = tested on: C57BL/6 mice, diffuse TBI; assay: Plasma cytokine measurement after TBI; type: in vivo, mouse; settings: 10 mg/kg i.p. 30 min prior to TBI
Experimental: 30 min prior to TBI or sham injury, mice were randomly assigned to a therapeutic group and received an intraperitoneal injection of 2LS80Mel (10 mg/kg) or sterile saline (0.25 ml). Groups were as follows: TBI-2LS80Mel n = 17; TBI-vehicle n = 17; sham n = 22 (vehicle n = 11, 2LS80Mel n = 11).
For injury induction 24 h post-surgery, mice were re-anesthetized with 5% isoflurane delivered for 3 min. The cap was removed from the injury-hub assembly and the dura was visually inspected through the hub to ensure it was intact with no debris. The hub was then filled with normal saline and attached to an extension tube connected to the male end of the fluid percussion device (Custom Design and Fabrication, Virginia Commonwealth University, Richmond, VA). An injury of moderate severity for our injury model (1.4 atm) was administered by releasing the pendulum onto the fluid-filled cylinder following the return of a toe-pinch response. Sham mice underwent the same procedure except the pendulum was not released. Injured mice were monitored for presence of a forearm fencing response and righting reflex times were recorded as indicators of injury severity ([Hosseini and Lifshitz, 2009]). The righting reflex time is the total time from the initial impact until the mouse spontaneously rights itself from a supine position. The fencing response is a tonic posturing characterized by extension and flexion of opposite arms that has been validated as an overt indicator of injury severity ([Hosseini and Lifshitz, 2009]). The injury hub was removed, and the brain was inspected for uniform herniation and integrity of the dura. The incision was cleaned with saline and closed using sutures. Moderately brain-injured mice had righting reflex recovery times greater than 4 min and a positive fencing response. Righting reflex times for TBI-2LS80Mel mice were 477.13 ± 83.13 s and the righting reflex times for TBI-vehicle mice were 417.05 ± 107.47 s. […] After spontaneously righting, mice were placed in a heated recovery cage and monitored until they were ambulatory (approximately 5–15 min) before being returned to their piezoelectric sleep cage (see below). […]
Approximately 75 μl of blood were centrifuged to collect approximately 40 μl of plasma from each animal at 2 and 14 days post-injury ([Saber et al., 2020]). Multiplex cytokine assays (MILLIPLEX MAP Mouse Cytokine/Chemokine Magnetic Bead Panel, Millipore Sigma, Burlington, MA) quantified interleukin (IL)-1β, IL-6, and tumor necrosis factor (TNF)-α in peripheral blood. […] Fluorescent intensity was measured on a Bio-Plex® 200 system (Bio-Rad Laboratories, Hercules, CA) and corresponded to the concentration of each analyte in plasma samples. Duplicate values were averaged and analyzed between groups. […]

[2] = target: T1, human PAC1 receptor (Homo sapiens, UniProt P41586); assay: cAMP stimulation in CHO cells expressing PAC1; type: cell-based
T1 construct: expressed in transfected cells; host or cells: CHO cells (G418 selection)
T1 sequence (P41586 21-468): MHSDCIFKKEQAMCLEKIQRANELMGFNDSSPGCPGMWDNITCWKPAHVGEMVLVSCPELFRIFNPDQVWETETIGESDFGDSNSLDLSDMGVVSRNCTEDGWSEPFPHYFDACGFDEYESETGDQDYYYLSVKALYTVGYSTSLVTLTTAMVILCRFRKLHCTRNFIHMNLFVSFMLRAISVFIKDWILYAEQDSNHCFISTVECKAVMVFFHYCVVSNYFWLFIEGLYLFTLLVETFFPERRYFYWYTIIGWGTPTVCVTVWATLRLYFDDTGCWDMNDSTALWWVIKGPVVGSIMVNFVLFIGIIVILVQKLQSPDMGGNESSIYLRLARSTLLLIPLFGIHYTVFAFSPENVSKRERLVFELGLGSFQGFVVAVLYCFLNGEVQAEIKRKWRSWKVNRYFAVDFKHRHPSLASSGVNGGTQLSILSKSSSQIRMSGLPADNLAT
Summary of the method: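 Serum-starved CHO cells expressing human receptors were pre-treated 20 min with 500 μM IBMX, then exposed to agonist concentration curves for 10 min in 500 μM IBMX. cAMP quantified by competition with bovine PKA and ^3H-cAMP (1 h, room temperature), scintillation read.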

| SMILES | Plasma IL-1β ([1]; 2 DPI) | Plasma IL-6 ([1]; 2 DPI) | Plasma TNF-α ([1]; 2 DPI) | Peripheral cytokines (IL-1β, IL-6, TNF-α) ([1]; 14 DPI, data not shown) | EC50 [2] [nM] | Emax ([2]; CHO) [%] |
| --- | --- | --- | --- | --- | --- | --- |
| CC[C@H](C)[C@H](NC(=O)CNC(=O)[C@H](CC(=O)O)NC(=O)[C@H](CO)NC(=O)[C@@H](N)Cc1c[nH]cn1)C(=O)N[C@@H](Cc1ccccc1)C(=O)N[C@H](C(=O)N[C@@H](CC(=O)O)C(=O)N[C@@H](CO)C(=O)N[C@@H](Cc1ccc(O)cc1)C(=O)N[C@@H](CO)C(=O)N[C@@H](CCCNC(=N)N)C(=O)N[C@@H](Cc1ccc(O)cc1)C(=O)N[C@@H](CCCNC(=N)N)C(=O)N[C@@H](CCCCN)C(=O)N[C@@H](CCC(N)=O)C(=O)N[C@@H](CC(C)C)C(=O)N[C@@H](C)C(=O)N[C@H](C(=O)N[C@@H](CCCCN)C(=O)N[C@@H](CCCCN)C(=O)N[C@@H](Cc1ccc(O)cc1)C(=O)N[C@@H](CC(C)C)C(=O)N[C@@H](C)C(=O)N[C@@H](C)C(=O)N[C@H](C(=O)N[C@@H](CC(C)C)C(=O)N[C@@H](CO[C@@H]1O[C@H](CO[C@H]2O[C@H](CO)[C@H](O)[C@H](O)[C@H]2O)[C@@H](O)[C@H](O)[C@H]1O)C(N)=O)C(C)C)C(C)C)[C@@H](C)O [Compound 2LS80Mel] | no differences | no differences | no differences | no differences | – | – |
| [2H]C([2H])([2H])C([2H])(C([2H])([2H])[2H])[C@]([2H])(NC(=O)[C@H](C)NC(=O)[C@H](C)NC(=O)[C@H](CC(C)C)NC(=O)[C@H](Cc1ccc(O)cc1)NC(=O)[C@H](CCCCN)NC(=O)[C@H](CCCCN)NC(=O)[C@@]([2H])(NC(=O)[C@H](C)NC(=O)[C@H](CC(C)C)NC(=O)[C@H](CCC(N)=O)NC(=O)[C@H](CCCCN)NC(=O)[C@H](CCCNC(=N)N)NC(=O)[C@H](Cc1ccc(O)cc1)NC(=O)[C@H](CCCNC(=N)N)NC(=O)[C@H](CO)NC(=O)[C@H](Cc1ccc(O)cc1)NC(=O)[C@H](CO)NC(=O)[C@H](CC(=O)O)NC(=O)[C@@H](NC(=O)[C@H](Cc1ccccc1)NC(=O)[C@@H](NC(=O)CNC(=O)[C@H](CC(=O)O)NC(=O)[C@H](CO)NC(=O)[C@@H](N)Cc1c[nH]cn1)[C@@H](C)CC)[C@@H](C)O)C([2H])(C([2H])([2H])[2H])C([2H])([2H])[2H])C(=O)N[C@@H](CC(C)C)C(=O)N[C@@H](CO[C@@H]1O[C@H](CO)[C@@H](O[C@@H]2O[C@H](CO)[C@H](O)[C@H](O)[C@H]2O)[C@H](O)[C@H]1O)C(N)=O [Compound 2LS98Lac] | – | – | – | – | 0.72 | 93 |
